Experimental data reported in US7045653B2, “Pharmaceuticals” (Pfizer, Inc., priority 2003, dated 2006).

Assays:
[1] = molecular target: T1, NEP (EC.3.4.24.11) from human kidney (Homo sapiens, UniProt P08473); assay: IC50 against NEP; assay type: biochemical
T1 construct: determined using NEP (EC.3.4.24.11) from human kidney; from tissue; host or cells: human kidney
Procedure: IC50 values of the compounds of the invention against NEP and ACE were determined using methods described in published patent application EP1097719-A1, paragraphs [0368] to [0376]. The IC50 values presented below were determined using NEP (EC.3.4.24.11) from human kidney.

hypertensive rats = settings: cited from earlier work
hypertensive patients = settings: added to the ACE inhibitor lisinopril; 37 hypertensive patients; cited from earlier work
[2] = tested on: patients with essential hypertension; settings: 24 black patients with essential hypertension; cited from earlier work

T1 sequence (P08473 whole entry): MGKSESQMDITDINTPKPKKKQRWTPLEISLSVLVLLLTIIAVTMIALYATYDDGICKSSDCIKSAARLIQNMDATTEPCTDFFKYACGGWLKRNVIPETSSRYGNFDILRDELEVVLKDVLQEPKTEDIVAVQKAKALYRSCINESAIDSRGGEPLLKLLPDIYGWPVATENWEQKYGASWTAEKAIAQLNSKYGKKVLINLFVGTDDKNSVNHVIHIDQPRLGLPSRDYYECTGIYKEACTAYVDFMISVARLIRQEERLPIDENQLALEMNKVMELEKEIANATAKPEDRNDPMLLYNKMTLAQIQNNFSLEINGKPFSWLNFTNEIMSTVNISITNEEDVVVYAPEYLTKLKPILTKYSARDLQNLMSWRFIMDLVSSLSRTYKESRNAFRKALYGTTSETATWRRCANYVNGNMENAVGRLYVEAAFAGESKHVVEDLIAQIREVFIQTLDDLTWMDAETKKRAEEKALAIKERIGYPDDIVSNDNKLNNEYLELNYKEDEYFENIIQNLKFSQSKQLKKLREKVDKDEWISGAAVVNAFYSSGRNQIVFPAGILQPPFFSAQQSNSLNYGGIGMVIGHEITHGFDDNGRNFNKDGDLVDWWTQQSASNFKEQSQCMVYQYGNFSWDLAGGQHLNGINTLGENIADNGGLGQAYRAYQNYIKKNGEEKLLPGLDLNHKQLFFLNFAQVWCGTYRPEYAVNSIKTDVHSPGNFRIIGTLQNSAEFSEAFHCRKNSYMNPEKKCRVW

Compound	IC50 [1] [nM]	other results
CCC[C@H](CC1(C(=O)N[C@@H](CCOc2ccc(Cl)cc2)CC(=O)O)CCCC1)C(=O)O [Example 41, (3S)-3-[({1-[(2R)-2-Carboxypentyl]cyclopentyl}carbonyl)amino]-5-(4-chlorophenoxy)pentanoic Acid]	6.3	–
COCCOC[C@H](CC1(C(=O)N[C@H]2CC[C@@H](C(=O)O)CC2)CCCC1)C(=O)O [candoxatrilat]	–	systolic blood pressure (hypertensive rats): lowers systolic blood pressure
COCCOC[C@H](CC1(C(=O)N[C@H]2CC[C@@H](C(=O)O)CC2)CCCC1)C(=O)Oc1ccc2c(c1)CCC2 [candoxatril]	–	supine and erect blood pressure (hypertensive patients): marked reduction in both supine and erect blood pressure
CC1(C)OCC(COC(=O)C(Cc2ccccc2)N[C@@H](Cc2ccccc2)C(=O)NCCC(=O)O)O1 (some centres unmarked) [SCH34826]	–	supine blood pressure [2]: significantly lowered supine blood pressure

Continued, in another order:

IC50 [1] [nM]	Compound	other results
0.7	COCC[C@H](CC1(C(=O)N[C@@H](CCCc2ccc(Cl)cc2)CC(=O)O)CCCC1)C(=O)O [Example 53, (3S)-3-[({1-[(2S)-2-carboxy-4-methoxybutyl]cyclopentyl}carbonyl)amino]-6-(4-chlorophenyl)hexanoic Acid]	–
2.4	COCC[C@H](CC1(C(=O)N[C@@H](CCOc2ccc(Cl)cc2)CC(=O)O)CCCC1)C(=O)O [Example 48, (3S)-3-[({1-[(2S)-2-Carboxy-4-methoxybutyl]cyclopentyl}carbonyl)amino]-5-(4-chlorophenoxy)pentanoic Acid]	–
8.2	COCC[C@H](CC1(C(=O)N[C@@H](COCc2ccc(Cl)cc2)CC(=O)O)CCCC1)C(=O)O [Example 16, (2S)-2-[(1-{[((1R)-2-Carboxy-1-{[(4-chlorobenzyl)oxy]methyl}ethyl)amino]-carbonyl}cyclopentyl)methyl]-4-methoxybutanoic Acid]	–
4.7	COCC[C@H](CC1(C(=O)N[C@@H](CCCc2ccc(OC)cc2)CC(=O)O)CCCC1)C(=O)O [Example 54, (3S)-3-[({1-[(2S)-2-carboxy-4-methoxybutyl]cyclopentyl}carbonyl)amino]-6-(4-methoxyphenyl)hexanoic Acid]	–
